Measurements published in patent publication US20230210834A1, “RNA METHYLTRANSFERASE INHIBITOR, SCREENING METHOD THEREFOR, ANTI-CANCER AGENT EFFICACY ASSESSMENT MARKER, AND KIT FOR EFFECTIVELY PREDICTING FTSJ1 INHIBITOR” (National University Corporation Okayama University, priority 2019, published 2023).

Tests used:
[1] = tested on: triple-negative breast cancer cell line MDA-MB-231; assay: Anti-tumor effect evaluation test in MDA-MB-231 tumor model mice; assay type: in vivo, immunodeficient mice (BALB/c-nu/nu); conditions: 20 mg/kg intraperitoneally every other day in corn oil; FIG. 1 and 2
Experimental: A cell suspension (1×10^6 cells/100 μL), in which triple-negative breast cancer cell line MDA-MB-231 was suspended in phosphate buffer (PBS, produced by FUJIFILM Wako Pure Chemical Corporation), was inoculated subcutaneously in the dorsal lumbar region of immunodeficient mice (BALB/c-nu/nu, female, 6 weeks old, purchased from Shimizu Laboratory Supplies Co., Ltd.) using a syringe with a 23 G injection needle (Terumo Corporation). After confirming that the cancer cells engrafted under the skin of the mice to form tumor tissues, and that the tumor volume reached 100 mm^3, the obtained tumor model mice were used for the following evaluation test. First, each compound for evaluation was dissolved in corn oil (produced by Sigma-Aldrich Co., LLC) and administered intraperitoneally. PVZF0024 was administered at 100 mg/kg and PVZF2001 was administered at 20 mg/kg to the tumor model mice every other day. At each administration, the tumor diameter was measured with a caliper. The tumor volume was calculated according to the following formula: V=(3.14×D×d^2)/6 (wherein V is the tumor volume, D is the tumor major axis, and d is the tumor minor axis) (Wu. et al., Clin. Cancer Res., 2013 Oct. 15; 19(20): 5699-5710).

[2] = tested on: polyglutamine luciferase reporter; assay: Screening: polyglutamine luciferase reporter assay in NUGC3 cells (luminescence % of DMSO); assay type: cell-based, human; conditions: NUGC3 cells, luminescence relative to DMSO

For `CC(C)c1cc(C(C)C)c(S(=O)(=O)CC2CC(C)(C)CC(C)(C)C2)c(C(C)C)c1` [PVZF2001], the “antitumor effect (tumor growth, tumor volume)” value [1] was “significantly inhibit tumor growth”, the Polyglutamine ([2]; 5 μM) was 41.05% and the Polyglutamine ([2]; 10 μM) was 19.01%.
